Test results published in US11331299B2, “Medicinal use of serrulatane diterpenes” (The University of Sydney, priority 2016, dated 2022).
Read-outs that look alike come from different tables or passages of the source.

Tested on: 280 human cancer cell lines
Experiment: OncoPanel cell proliferation assay (10-day)
Type: cell-based
Details: for EC50: read-out: Cell Count EC50; for IC50: read-out: Cell Count IC50
[1] = Homo sapiens, 22Rv1, 22Rv1, Prostate
[2] = Homo sapiens, 786-0, 786-O, Kidney
[3] = Homo sapiens, A7, Skin (Melanoma)
[4] = Homo sapiens, A101D, Skin (Melanoma)
[5] = Homo sapiens, A 172, A172, CNS - Glioma
[6] = Homo sapiens, A253, A-253, Head and Neck
[7] = Homo sapiens, A388, Head and Neck
[8] = Homo sapiens, A498, A498, Kidney
[9] = Homo sapiens, A549, A549, Lung - NSCLC
[10] = Homo sapiens, A673, A-673, Soft Tissue - Sarcoma
[11] = Homo sapiens, A704, A-704, Kidney
[12] = Homo sapiens, A-375, A375, Skin (Melanoma)
[13] = Homo sapiens, A-427, A427, Lung - NSCLC
[14] = Homo sapiens, A-431, A431, Head and Neck
[15] = Homo sapiens, AN3-CA, AN3 CA, Female GU - Uterus
[16] = Homo sapiens, ARH-77, ARH-77, Myeloma
[17] = Homo sapiens, ASPC1, AsPC-1, Pancreas
[18] = Homo sapiens, AU565, AU565, Breast
[19] = Homo sapiens, BCP-1, BCP-1, Lymphoma
[20] = Homo sapiens, BE(2)-C, BE(2)C, CNS - Neuroblastoma
[21] = Homo sapiens, BFTC-905, BFTC-905, Bladder
[22] = Homo sapiens, BHT-101, BHT-101, Endocrine - Thyroid
[23] = Homo sapiens, BM-1604, BM-1604, Prostate
[24] = Homo sapiens, BPH-1, BPH1, Prostate
[25] = Homo sapiens, BT-20, BT20, Breast

CC(C)=CCC[C@H](C)[C@@H]1CC[C@@H](C)c2c1cc(C)c(O)c2O [Compound 4, 7,8-dihydroxyserrulat-14-ene]
Number of cell types, GI Activity Potent (GI50 range 0.03-0.099 μM, of 280 cell types): 0 | Number of cell types, GI Activity moderately potent (GI50 range 0.1-0.99 μM, of 280 cell types): 1 | Number of cell types, GI Activity Strong (GI50 range 1-2.99 μM, of 280 cell types): 11 | Number of cell types, GI Activity moderately strong (GI50 range 3-9.99 μM, of 280 cell types): 125 | Number of cell types, GI Activity weak (GI50 range 10-30.00 μM, of 280 cell types): 130 | Number of cell types, GI Activity very weak (GI50 range >30 μM, of 280 cell types): 13 | GI50 (Homo sapiens, 12 cell lines with moderately potent to strong activity, read-out: GI50): 0.68 to 2.92 µM | EC50 [1]: 9.08 µM | GI50 (Homo sapiens, 22Rv1, 22Rv1, Prostate, read-out: Cell Count GI50): 9 µM | IC50 [1]: 9.08 µM | EC50 (Homo sapiens, 647-V, Bladder): 5.99 µM | GI50 (Homo sapiens, 647-V, Bladder, read-out: Cell Count GI50): 5.99 µM | IC50 (Homo sapiens, 647-V, Bladder): 6 µM | EC50 (Homo sapiens, 769-P, Kidney): 3.72 µM | GI50 (Homo sapiens, 769-P, Kidney, read-out: Cell Count GI50): 3.71 µM | IC50 (Homo sapiens, 769-P, Kidney): 3.72 µM | EC50 [2]: 14 µM | GI50 (Homo sapiens, 786-0, 786-O, Kidney, read-out: Cell Count GI50): 13.9 µM | IC50 [2]: 14 µM | EC50 (Homo sapiens, 5637, Bladder): 15.2 µM | GI50 (Homo sapiens, 5637, Bladder, read-out: Cell Count GI50): 15.1 µM | IC50 (Homo sapiens, 5637, Bladder): 15.2 µM | EC50 [3]: 10.5 µM | GI50 (Homo sapiens, A7, Skin (Melanoma), read-out: Cell Count GI50): 10.5 µM | IC50 [3]: 10.5 µM | EC50 [4]: > 30 µM | GI50 (Homo sapiens, A101D, Skin (Melanoma), read-out: Cell Count GI50): > 30 µM | IC50 [4]: > 30 µM | EC50 [5]: 8.08 µM | GI50 (Homo sapiens, A 172, A172, CNS - Glioma, read-out: Cell Count GI50): 8.03 µM | IC50 [5]: 8.08 µM | EC50 [6]: 18.2 µM | GI50 (Homo sapiens, A253, A-253, Head and Neck, read-out: Cell Count GI50): 18.1 µM | IC50 [6]: 18.2 µM | EC50 [7]: 7.66 µM | GI50 (Homo sapiens, A388, Head and Neck, read-out: Cell Count GI50): 7.59 µM | IC50 [7]: 7.66 µM | EC50 [8]: 12.3 µM | GI50 (Homo sapiens, A498, A498, Kidney, read-out: Cell Count GI50): 12.2 µM | IC50 [8]: 12.3 µM | EC50 [9]: 10.9 µM | GI50 (Homo sapiens, A549, A549, Lung - NSCLC, read-out: Cell Count GI50): 10.8 µM | IC50 [9]: 10.9 µM | EC50 [10]: 2.88 µM | GI50 (Homo sapiens, A673, A-673, Soft Tissue - Sarcoma, read-out: Cell Count GI50): 2.87 µM | IC50 [10]: 2.88 µM | EC50 [11]: 5.7 µM | GI50 (Homo sapiens, A704, A-704, Kidney, read-out: Cell Count GI50): 5.41 µM | IC50 [11]: 5.7 µM | EC50 [12]: 5.74 µM | GI50 (Homo sapiens, A-375, A375, Skin (Melanoma), read-out: Cell Count GI50): 5.74 µM | IC50 [12]: 5.74 µM | EC50 [13]: 10 µM | GI50 (Homo sapiens, A-427, A427, Lung - NSCLC, read-out: Cell Count GI50): 9.98 µM | IC50 [13]: 10 µM | EC50 [14]: 24.8 µM | GI50 (Homo sapiens, A-431, A431, Head and Neck, read-out: Cell Count GI50): 24.8 µM | IC50 [14]: 24.8 µM | EC50 (Homo sapiens, ACHN, Kidney): 9.5 µM | GI50 (Homo sapiens, ACHN, Kidney, read-out: Cell Count GI50): 9.47 µM | IC50 (Homo sapiens, ACHN, Kidney): 9.5 µM | EC50 (Homo sapiens, AGS, Stomach): 5.25 µM | GI50 (Homo sapiens, AGS, Stomach, read-out: Cell Count GI50): 5.24 µM | IC50 (Homo sapiens, AGS, Stomach): 5.25 µM | EC50 [15]: 9.62 µM | GI50 (Homo sapiens, AN3-CA, AN3 CA, Female GU - Uterus, read-out: Cell Count GI50): 9.43 µM | IC50 [15]: 9.62 µM | EC50 [16]: 13.5 µM | GI50 (Homo sapiens, ARH-77, ARH-77, Myeloma, read-out: Cell Count GI50): 13.4 µM | IC50 [16]: 13.5 µM | EC50 [17]: 14.7 µM | GI50 (Homo sapiens, ASPC1, AsPC-1, Pancreas, read-out: Cell Count GI50): 14.5 µM | IC50 [17]: 14.7 µM | EC50 [18]: 10.1 µM | GI50 (Homo sapiens, AU565, AU565, Breast, read-out: Cell Count GI50): 10 µM | IC50 [18]: 10.1 µM | EC50 (Homo sapiens, BC-1, Lymphoma): 4.16 µM | GI50 (Homo sapiens, BC-1, Lymphoma, read-out: Cell Count GI50): 4.16 µM | IC50 (Homo sapiens, BC-1, Lymphoma): 4.16 µM | EC50 [19]: 8.82 µM | GI50 (Homo sapiens, BCP-1, BCP-1, Lymphoma, read-out: Cell Count GI50): 8.75 µM | IC50 [19]: 8.82 µM | EC50 [20]: 13.1 µM | GI50 (Homo sapiens, BE(2)-C, BE(2)C, CNS - Neuroblastoma, read-out: Cell Count GI50): 13 µM | IC50 [20]: 13.1 µM | EC50 [21]: 9.7 µM | GI50 (Homo sapiens, BFTC-905, BFTC-905, Bladder, read-out: Cell Count GI50): 9.68 µM | IC50 [21]: 9.7 µM | EC50 [22]: 6.8 µM | GI50 (Homo sapiens, BHT-101, BHT-101, Endocrine - Thyroid, read-out: Cell Count GI50): 6.77 µM | IC50 [22]: 6.8 µM | EC50 [23]: > 30 µM | GI50 (Homo sapiens, BM-1604, BM-1604, Prostate, read-out: Cell Count GI50): > 30 µM | IC50 [23]: > 30 µM | EC50 [24]: 17.3 µM | GI50 (Homo sapiens, BPH-1, BPH1, Prostate, read-out: Cell Count GI50): 17.3 µM | IC50 [24]: 17.3 µM | EC50 [25]: 14.1 µM | GI50 (Homo sapiens, BT-20, BT20, Breast, read-out: Cell Count GI50): 13.9 µM | IC50 [25]: 14.3 µM | EC50 (Homo sapiens, BT-474, BT474, Breast): 25.5 µM
